Series [1] concerns the target T1, Serine/threonine-protein kinase ULK1 (Homo sapiens, UniProt O75385).
T1 sequence (O75385 whole entry): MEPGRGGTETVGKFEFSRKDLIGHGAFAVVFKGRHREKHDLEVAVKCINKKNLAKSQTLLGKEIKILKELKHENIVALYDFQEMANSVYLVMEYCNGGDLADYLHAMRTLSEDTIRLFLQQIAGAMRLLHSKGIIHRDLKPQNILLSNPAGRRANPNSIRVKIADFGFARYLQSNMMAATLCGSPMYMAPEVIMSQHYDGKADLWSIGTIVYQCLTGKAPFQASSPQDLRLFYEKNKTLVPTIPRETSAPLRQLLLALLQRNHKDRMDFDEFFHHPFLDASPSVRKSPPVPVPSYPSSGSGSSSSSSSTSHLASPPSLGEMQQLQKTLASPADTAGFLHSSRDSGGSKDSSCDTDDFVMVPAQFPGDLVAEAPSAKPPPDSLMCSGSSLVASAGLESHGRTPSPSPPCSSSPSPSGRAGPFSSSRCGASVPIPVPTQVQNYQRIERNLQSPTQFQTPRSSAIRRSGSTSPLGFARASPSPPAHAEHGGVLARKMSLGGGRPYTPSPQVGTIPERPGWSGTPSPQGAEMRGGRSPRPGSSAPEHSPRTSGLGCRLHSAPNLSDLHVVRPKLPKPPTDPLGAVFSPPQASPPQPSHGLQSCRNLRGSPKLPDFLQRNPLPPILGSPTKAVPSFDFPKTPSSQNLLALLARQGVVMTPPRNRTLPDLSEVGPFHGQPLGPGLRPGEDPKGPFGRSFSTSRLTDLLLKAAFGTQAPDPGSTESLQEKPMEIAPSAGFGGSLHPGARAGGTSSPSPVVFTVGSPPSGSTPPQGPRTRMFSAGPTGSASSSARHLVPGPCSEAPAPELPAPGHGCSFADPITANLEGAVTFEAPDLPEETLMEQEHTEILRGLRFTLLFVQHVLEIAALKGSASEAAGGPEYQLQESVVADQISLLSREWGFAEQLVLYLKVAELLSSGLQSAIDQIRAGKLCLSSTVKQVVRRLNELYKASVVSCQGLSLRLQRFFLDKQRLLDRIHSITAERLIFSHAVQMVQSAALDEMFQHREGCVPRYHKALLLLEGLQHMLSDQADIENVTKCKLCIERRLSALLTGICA
Put plainly: Inhibition of ATG13 binding to full-length ULK1 (unknown origin) expressed in HEK293T cells preincubated for 15 mins followed by human C-terminal FLAG-tagged ATG13 addition measured after 30 mins by Alphascreen assay. It is filed as cell-based. For orientation: Bead proximity is the source of the signal in Alpha formats.

The nature of series [2]: Stability in rat microsomes. It is filed as ADME, Microsome.
The nature of series [3]: Stability in mouse microsomes. Format: ADME, Microsome.
The nature of series [4]: Stability in human microsomes. It is filed as ADME, Microsome.
In another series the target is T2, Cytochrome P450 1A2 (Homo sapiens, UniProt P05177).
T2 sequence (P05177 whole entry): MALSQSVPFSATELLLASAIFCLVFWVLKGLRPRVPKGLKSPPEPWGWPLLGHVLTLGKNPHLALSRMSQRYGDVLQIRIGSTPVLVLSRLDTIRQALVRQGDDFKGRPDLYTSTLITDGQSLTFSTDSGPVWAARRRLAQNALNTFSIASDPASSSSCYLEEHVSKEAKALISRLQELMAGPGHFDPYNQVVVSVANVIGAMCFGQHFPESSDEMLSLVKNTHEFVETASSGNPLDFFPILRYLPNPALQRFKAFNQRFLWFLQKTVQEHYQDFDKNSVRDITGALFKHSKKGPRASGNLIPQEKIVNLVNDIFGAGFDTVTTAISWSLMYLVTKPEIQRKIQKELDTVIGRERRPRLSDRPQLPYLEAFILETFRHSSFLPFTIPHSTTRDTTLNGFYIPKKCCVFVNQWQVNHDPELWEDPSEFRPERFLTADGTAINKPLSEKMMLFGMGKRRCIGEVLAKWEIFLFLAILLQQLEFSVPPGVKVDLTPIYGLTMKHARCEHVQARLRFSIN
As to the kind of experiment: Inhibition of CYP1A2 (unknown origin) at 10 uM. Format: ADME.

In the next series the target is Cytochrome P450 2C9 (Homo sapiens, UniProt P11712). Put plainly: Inhibition of CYP2C9 (unknown origin) at 10 uM. It is filed as ADME.
For a further series, the target named is Cytochrome P450 2D6 (Homo sapiens, UniProt P10635). As to the kind of experiment: Inhibition of CYP2D6 (unknown origin) at 10 uM. Format: ADME.
Another series deals with Cytochrome P450 3A4 (Homo sapiens, UniProt P08684). As to the kind of experiment: Inhibition of CYP3A4 (unknown origin) at 10 uM. It is filed as ADME.
Series [5] is described as follows: Half life in human microsomes. Format: ADME, Microsome.

By IC50 is commonly meant the concentration that gives 50% inhibition. A lower IC50 goes with inhibition by little substance. By half-life is commonly meant how long it takes for the measured level to halve.

Sequence of Cytochrome P450 3A4 (P08684 whole entry): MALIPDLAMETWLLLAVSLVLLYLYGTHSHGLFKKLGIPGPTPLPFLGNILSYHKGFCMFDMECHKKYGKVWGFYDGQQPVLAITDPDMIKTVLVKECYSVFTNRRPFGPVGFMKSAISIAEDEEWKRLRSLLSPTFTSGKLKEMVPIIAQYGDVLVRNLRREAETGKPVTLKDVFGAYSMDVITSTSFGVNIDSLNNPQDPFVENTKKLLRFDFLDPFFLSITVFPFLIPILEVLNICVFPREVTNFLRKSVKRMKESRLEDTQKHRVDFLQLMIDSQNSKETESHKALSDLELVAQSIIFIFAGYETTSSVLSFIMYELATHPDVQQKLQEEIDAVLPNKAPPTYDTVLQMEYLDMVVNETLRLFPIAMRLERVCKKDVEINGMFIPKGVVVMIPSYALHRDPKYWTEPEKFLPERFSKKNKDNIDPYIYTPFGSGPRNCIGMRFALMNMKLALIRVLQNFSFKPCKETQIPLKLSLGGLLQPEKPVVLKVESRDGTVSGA
Sequence of Cytochrome P450 2C9 (P11712 whole entry): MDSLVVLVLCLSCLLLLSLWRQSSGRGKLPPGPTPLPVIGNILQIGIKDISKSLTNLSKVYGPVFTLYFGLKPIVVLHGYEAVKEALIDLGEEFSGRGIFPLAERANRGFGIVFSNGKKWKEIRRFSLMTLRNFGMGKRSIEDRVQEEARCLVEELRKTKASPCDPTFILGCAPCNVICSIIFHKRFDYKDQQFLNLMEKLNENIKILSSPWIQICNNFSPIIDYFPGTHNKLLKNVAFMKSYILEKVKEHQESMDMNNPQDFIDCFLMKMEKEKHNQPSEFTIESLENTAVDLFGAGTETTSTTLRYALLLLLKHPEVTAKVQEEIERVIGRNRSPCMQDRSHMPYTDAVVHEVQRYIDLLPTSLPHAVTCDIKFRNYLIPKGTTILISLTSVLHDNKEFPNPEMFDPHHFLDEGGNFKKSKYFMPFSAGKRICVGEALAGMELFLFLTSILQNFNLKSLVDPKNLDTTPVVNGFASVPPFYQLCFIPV
Sequence of Cytochrome P450 2D6 (P10635 whole entry): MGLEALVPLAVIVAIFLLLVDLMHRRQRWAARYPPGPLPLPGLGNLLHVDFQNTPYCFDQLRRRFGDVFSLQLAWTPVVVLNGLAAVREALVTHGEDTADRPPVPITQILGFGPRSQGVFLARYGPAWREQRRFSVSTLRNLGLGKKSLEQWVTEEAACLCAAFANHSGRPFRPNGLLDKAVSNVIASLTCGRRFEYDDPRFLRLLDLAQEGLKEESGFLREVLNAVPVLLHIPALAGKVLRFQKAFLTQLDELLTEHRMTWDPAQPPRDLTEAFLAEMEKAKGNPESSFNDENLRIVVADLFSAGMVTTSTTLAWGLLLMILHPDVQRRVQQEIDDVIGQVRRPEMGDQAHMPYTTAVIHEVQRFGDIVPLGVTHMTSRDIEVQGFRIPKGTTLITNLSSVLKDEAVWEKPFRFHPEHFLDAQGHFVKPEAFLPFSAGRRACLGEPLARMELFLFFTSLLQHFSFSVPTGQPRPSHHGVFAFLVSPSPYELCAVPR

Regarding `COC(=O)c1cccc(Nc2n[nH]c3ccc(NC(=O)C4CCCC(N)C4)cc23)c1` (stereo unspecified), the IC50 in [1] was determined as 0.183 µM.

`NC1CCCC(C(=O)Nc2ccc3[nH]nc(Nc4cccc5cnccc45)c3c2)C1` (stereo unspecified) returned an IC50 in series [1] of 0.04 µM.

In series [1], `O=C(Nc1ccc2[nH]nc(Nc3cccc4ccccc34)c2c1)C1CCOCC1` showed an IC50 of 1.83 µM.

As for `NC1CCCC(C(=O)Nc2ccc3[nH]nc(NC(=O)c4ccccc4)c3c2)C1` (stereo unspecified), in [1], the IC50 was determined as 0.242 µM.

In series [1], `Nc1n[nH]c2ccc(NC(=O)C3CCNCC3)cc12` had an IC50 of 0.56 µM.

As for `Nc1cccc(C(=O)Nc2ccc3[nH]nc(N)c3c2)c1`, the IC50 in series [1] stood at 18.1 µM.

In the case of `O=C(Nc1ccc2[nH]nc(Nc3cccc4ccccc34)c2c1)C1CCNCC1`, the IC50 in series [1] came out at 0.315 µM. The Stability entry in series [2], in series [3] and in series [4] was “Stable” throughout. Besides, the “inhibition (INH)” value at Cytochrome P450 1A2, against Cytochrome P450 2C9, at Cytochrome P450 2D6 and on Cytochrome P450 3A4 was “Not Active” in each case.

For the compound `O=C(Nc1ccc2[nH]nc(Nc3cccc4ccccc34)c2c1)C1CCN1` (stereo unspecified), in series [1], the IC50 came to 4.94 µM.

Regarding `Nc1n[nH]c2ccc(NC(=O)C3CCCCN3)cc12` (racemic), the 50% inhibitory concentration (IC50) in series [1] was 0.84 µM.

Consider `NC1CCCC(C(=O)Nc2ccc3[nH]nc(Nc4cccc(C(F)(F)F)c4)c3c2)C1` (stereo unspecified), for which, in [1], the IC50 is 0.288 µM.

With `NC1CCCC(C(=O)Nc2ccc3[nH]nc(Nc4ccccc4)c3c2)C1` (stereo unspecified), in [1], the IC50 worked out at 2.73 µM.

The compound `COc1ccccc1Nc1n[nH]c2ccc(NC(=O)C3CCCC(N)C3)cc12` (stereo unspecified) registered an IC50 in series [1] of 0.11 µM. Besides, the Stability entry in series [2], in series [3] and in series [4] was “Stable” throughout. Also, the “inhibition (INH)” value at Cytochrome P450 1A2, on Cytochrome P450 2C9, against Cytochrome P450 2D6 and at Cytochrome P450 3A4 was “Not Active” in each case.

In turn, `COc1ccc(CNc2n[nH]c3ccc(NC(=O)C4CCCC(N)C4)cc23)cc1` (stereo unspecified) displayed an IC50 in [1] of 0.477 µM.

`Nc1n[nH]c2ccc(NC(=O)C3CCCNC3)cc12` (racemic): the IC50 in [1] stood at 0.67 µM.

Turning to `Nc1n[nH]c2ccc(NC(=O)[C@H]3CC[C@H](N)CC3)cc12`, the IC50 in [1] turned out to be 14 µM.

`NC1CCCC(C(=O)Nc2ccc3[nH]nc(Nc4cccc5ccccc45)c3c2)C1` (mixture of isomers): the Stability result in series [2], in series [3] and in [4] was “Stable” throughout. Moreover, the “inhibition (INH)” value against Cytochrome P450 1A2, against Cytochrome P450 2C9, at Cytochrome P450 2D6 and against Cytochrome P450 3A4 was “Not Active” throughout.

The compound `NC1CCCC(C(=O)Nc2ccc3[nH]nc(Nc4ccnc5ccccc45)c3c2)C1` (stereo unspecified) registered a half-maximal inhibitory concentration (IC50) in [1] of 0.239 µM.

The compound `N[C@H]1CCC[C@@H](C(=O)Nc2ccc3[nH]nc(Nc4cccc5ccccc45)c3c2)C1` yielded a half-life in series [5] of 3.73 h. Also, the “inhibition (INH)” value against Cytochrome P450 1A2, on Cytochrome P450 2C9, against Cytochrome P450 2D6 and against Cytochrome P450 3A4 was “Not Active” each time.

As to `Nc1n[nH]c2ccc(NC(=O)[C@H]3CC[C@@H](N)CC3)cc12`, the IC50 in series [1] was determined as 1.49 µM.

Regarding `NCCCC(=O)Nc1ccc2[nH]nc(N)c2c1`, the IC50 in series [1] was above 33 µM.

In [1], `NC1CCCC(C(=O)Nc2ccc3[nH]nc(Nc4ccc(Br)cc4)c3c2)C1` (stereo unspecified) had a 50% inhibitory concentration (IC50) of 0.416 µM.

Compound `CN(C)C1CCCC(C(=O)Nc2ccc3[nH]nc(Nc4cccc5ccccc45)c3c2)C1` (stereo unspecified) gave an IC50 in [1] of 4.23 µM.

For the origin of these results see ChEMBL document CHEMBL4130592, “In Silico HTS and Structure Based Optimization of Indazole-Derived ULK1 Inhibitors” (ACS Med Chem Lett, 2017).
